Results as given in patent publication US20180369264A1, “COMBINATION OF A CARDIAC STEROID AND AN AKT INHIBITOR FOR THE TREATMENT OF CARDIOVASCULAR DISEASES AND DISORDERS” (YISSUM RESEARCH DEVELOPMENT COMPANY OF THE HEBREW …, priority 2015, published 2018).
Where “and” joins values, the source holds several entries; their conditions need not be identical. Identical values can stand only once. Like-named read-outs stand apart in the source and are kept apart here.

How the values were obtained:
Akt = system: Akt; design: scale not given here; conditions: class symbols, key not given; cited from earlier work
ERK = ERK phosphorylation in adult zebrafish heart (Western blot); assay type: in vivo; conditions: adult zebrafish heart, control experiments
Protocol: Adult zebrafish (˜12-months-old) were transferred to swimming medium containing 1 μM of CS drugs, as specified in the following examples. At various time points (5-30 min), as indicated in the following examples, the zebrafish were transferred to perfusion buffer and the hearts were immediately removed and transferred to RIPA lysis buffer (Sigma-Aldrich), and protease inhibitor cocktail (P8340, Sigma-Aldrich), at a 1:100 dilution). The tissue was homogenized in an ultrasonic homogenizer (Microson, NY, USA) and aliquots of the homogenate were stored at −70° C. until used.
Protein dilution and separation on SDS-PAGE electrophoresis, their transfer to a polyvinylidene fluoride membrane were carried out. […] The membranes were washed with TBS containing 0.1% Tween and exposed to horseradish peroxidase-conjugated secondary goat anti-rabbit IgG antibody (1:50,000). The membranes were stripped prior to their exposure to a different antibody. Detection was carried out with the aid of a Luminata™ Crescendo Western HRP Substrates, according to the manufacturer's instructions.

[1] = system: primary adult zebrafish cardiomyocytes; assay: Primary adult zebrafish cardiomyocyte contractility; assay type: cell-based
Protocol: Adult (4 to 12-month-old) ventricular myocytes were obtained by enzymatic dissociation (with collagenase II and IV, at 5 mg/ml, each). The zebrafish were stunned by a blow to the head and the brain was pithed. The heart was quickly removed and placed in a small Petri dish containing 10 ml isolation solution: 100 mM NaCl, 10 mM KCl, 1.2 mM KH2PO4, 4 mM MgSO4, 50 mM taurine, 20 mM glucose, and 10 mM Hepes, pH 6.9. The ventricle was cut free from the bulbus and atrium under a binocular. Ventricles from 3 fish were incubated for 45 minutes at 32° C. in a solution containing perfusion buffer (150 mM NaCl, 5.4 mM KCl, 1.5 mM MgSO4, 0.4 mM NaH2PO4, 2 mM CaCl2, 10 mM glucose, and 10 mM Hepes, pH 7.7). Collagenases II and IV (Gibco, NY, USA, 5 mg/ml each) and additional CaCl2 (2.012 mM final concentration) were added. Following Eppendorf centrifugation (1 minute, 250×g at room temperature) the precipitated cells were suspended in 1 ml perfusion buffer for 30 minutes at room temperature before use.
Cells were transferred to a chamber with a quartz base and examined using an inverted epifluorescence microscope (Nikon Diaphot 200, Japan). The myocytes were field-stimulated (0.5 Hz, 70 V, square waves) and contractions were measured using a video motion edge detector (Crescent Electronics, Sandy, Utah, USA) at the rate of 5 Hz. Cardiomyocyte performance was calculated as the percentage of resting cell length. The slopes of contraction and relaxation (+dL/dt and −dL/dt) were calculated from the linear portions of the changes in contractility. 9 cells per each group were measured. Each of the experiments was repeated at least 3 times with identical results.

[2] = system: wild-type zebrafish larvae heart; assay type: in vivo, zebrafish (Danio rerio); conditions: for effect on force of contraction / effect on heart rate: 1 nM
Protocol: Experiments were performed on wild-type (WT, AB strain) zebrafish (Danio rerio). The fish were maintained in accordance with the principles established by the NIH. […] The fish were kept in swimming medium (E3 medium) in small aquaria at 28° C. and maintained under a 14h: 10h light:dark cycle. The zebrafish larvae were maintained in the presence of 0.1% methylene blue (M9140, Sigma-Aldrich Inc, Israel) at 28° C. All measurements were taken in embryos at 72 hours post fertilization (hpf).
Ouabain, bufalin, digoxin, acetylcholine, carbachol, […] (pp2) and U0126 (1,4-diamino-2,3-dicyano-1,4-bis(2-aminophenylthio)butadiene) were purchased from Sigma-Aldrich Inc., Israel. The compounds were dissolved in egg water (0.3 g Instant Ocean Salt in distilled water) to a final selected concentration, as specified in the following examples. […]
(§1) Filming process Zebrafish larvae heart imaging was performed using an Olympus CKX41 (Japan) […] microscope with ×10 or ×20 magnification, and integrated incandescent illumination. A FastCam imi-tech (Korea) high speed digital camera with 640×480 pixel gray scale image sensor was mounted on the microscope, using ImCam software (IMI Technology, Co. Ltd) for high speed video recording. The larvae were anesthetized by placing them in filming/anesthetizing medium. Each larva in 0.5 ml filming/anesthetizing medium was transferred to a 96-well tissue culture plate at room temperature and sequential images of the heart were obtained, with the larvae positioned on their side, at 80 fps during 10 seconds with a shutter speed of 0.016 seconds.
Physiological parameters of cardiovascular performance, as indicated hereinbelow, were evaluated in the zebrafish larvae. Image analysis applications ImageJ (NIH, USA) were used, allowing the delineation of the endomyocardial border at the end of systole or end of diastole to define the ventricular area. Sequential still frames were analyzed to capture ventricular end-systole and end-diastole images. End Systolic Area (ESA, FIG. 1B) and End Diastolic Area (EDA, FIG. 1C) were used to calculate Fractional Area Change (FAC), according to the equation: FAC=(EDA-ESA)/EDA*100. The Ejection Fraction (EF) was determined by an independent estimate of ventricular volume. This was achieved by placing scan lines across the midventricular short axis (SA) and long axis (LA) at the end of systole (FIG. 1D) and diastole (FIG. 1E). […] EF was then calculated according to the equation: EF=(EDV-ESV)/EDV*100. Heart rate (HR) was measured in beats per minute. Cardiac output (CO) was calculated according to the equation: CO=(EDV-ESV)*HR. A minimum of five sequential pairs of systolic and diastolic cycles were measured and analyzed in 9-12 larvae for each treatment.

[3] = system: zebrafish accordion mutant (acc) larvae heart; assay: In-vivo heart contractility measurements in zebrafish acc mutant larvae; design: species or system zebrafish (Danio rerio); conditions: 1 nM, 90 minutes
Protocol: Ouabain, bufalin, digoxin, acetylcholine, carbachol, […] (pp2) and U0126 (1,4-diamino-2,3-dicyano-1,4-bis(2-aminophenylthio)butadiene) were purchased from Sigma-Aldrich Inc., Israel. The compounds were dissolved in egg water (0.3 g Instant Ocean Salt in distilled water) to a final selected concentration, as specified in the following examples. The larvae in 20 μL of E3 medium were transferred to the egg water solution containing one or two of the above specified drugs of choice, and incubated for 60-90 minutes at 28° C.
as §1
Physiological parameters of cardiovascular performance, as indicated hereinbelow, were evaluated in the zebrafish larvae. […] Sequential still frames were analyzed to capture ventricular end-systole and end-diastole images. […] The Ejection Fraction (EF) was determined by an independent estimate of ventricular volume. […] EF was then calculated according to the equation: EF=(EDV-ESV)/EDV*100. Heart rate (HR) was measured in beats per minute. Cardiac output (CO) was calculated according to the equation: CO=(EDV-ESV)*HR. A minimum of five sequential pairs of systolic and diastolic cycles were measured and analyzed in 9-12 larvae for each treatment.

[4] = in vivo; cited from earlier work
[5] = wt, ERK inhibitor experiment, 0.1 nM Oua, 10 nM PD98059, 20 minutes, 0.5 Hz

## C=CCc1ccc(O)c(-c2ccc(O)c(CC=C)c2)c1 [Honokiol, 2-(4-hydroxy-3-prop-2-enylphenyl)-4-prop-2-enylphenol]
Akt
  Akt: ✓

## CCCCCCCCCCCCCCCCOP(=O)([O-])OCC[N+](C)(C)C [Miltefosine, hexadecyl 2-(trimethylazaniumyl)ethyl phosphate]
Akt
  Akt: ✓

## COc1cccc(-c2cc(=O)c3ccccc3o2)c1N [PD98059, 2′-amino-3′-methoxyflavone]
ERK
  effect on CS-induced increase in ERK phosphorylation: inhibit the CS-induced increase in ERK phosphorylation
[1]; 10 nM PD98059
  amplitude of cell contraction, inhibitor alone: did not affect the amplitude of cell contraction
  contractility and relaxation rise time, inhibitor alone: increased contractility and relaxation rise time
[1]; 10 nM PD98059, 0.1 nM ouabain
  ouabain-induced increases in all contractility parameters in the presence of the inhibitor: completely prevented
[1]; [5]
  Amplitude: 0.13 ± 0.01
  Contraction Rate (−dv/dt): 0.87 ± 0.09
  Relaxation Rate (+dv/dt): 0.78 ± 0.14

## CC(C)(C)n1nc(-c2ccc(Cl)cc2)c2c(N)ncnc21 [PP2]
[2]; PP2 50 nM, U0126 1 μM, MK-2206 10 nM for 2 hours
  effect of inhibitor alone on heart function / basal contractility: did not affect heart function
[2]; inhibitor 30 minutes (PP2 50 nM; U0126 1 μM), then CS, measured 90 minutes later
  effect on CS-induced increase in contractility: completely abolished the CS-induced increase in contractility

## Cc1ccccc1CN1C2=NCCN2C(=O)C2=C1CCN(Cc1ccccc1)C2 [TIC10 Analogue, 2,6,7,8,9,10-hexahydro-10-[(2-methylphenyl)methyl]-7-(phenylmethyl)-imidazo[1,2-a]pyrido[4,3-d]pyrimidin-5(3H)-one]
Akt
  Akt: ✓

## Cc1ccccc1CN1C(=O)C2=C(CCN(Cc3ccccc3)C2)N2CCN=C12 [TIC10, 2,4,6,7,8,9-hexahydro-4-[(2-methylphenyl)methyl]-7-(phenylmethyl)-imidazo[1,2-a]pyrido[3,4-e]pyrimidin-5(1H)-one]
Akt
  Akt: ✓

## N#CC(=C(N)Sc1ccccc1N)C(C#N)=C(N)Sc1ccccc1N [U0126, 1,4-diamino-2,3-dicyano-1,4-bis(2-aminophenylthio)butadiene]
ERK
  effect on CS-induced increase in ERK phosphorylation: inhibit the CS-induced increase in ERK phosphorylation
[2]; zebrafish, in vivo
  effect of inhibitor alone on heart function / basal contractility: did not affect basal contractility
  effect on CS-induced increase in contractility: prevented the CS-induced increase in contractility

## CNC[C@H](O)c1ccc(O)c(O)c1 [adrenalin]
[2]; zebrafish, in vivo
  effect on heart contractility and rate: significant increase in heart contractility and rate
  effect on heart force of contraction and rate: increase in heart contractility and rate
  increase in CO: 18.34±1.97% and 30.48±2.67%

## C[C@]12CC[C@H](O)C[C@H]1CC[C@@H]1[C@@H]2CC[C@]2(C)[C@@H](c3ccc(=O)oc3)CC[C@]12O [bufalin, 5-[(3 S,5R,8R,9S,10S,13R,14S,17R)-3,14-dihydroxy-10,13-dimethyl-1,2,3,4,5,6,7,8,9,11,12,15,16,17-tetradecahydrocyclopenta[a]phenanthren-17-yl]pyran-2-one]
[2]
  effect on force of contraction: increased significantly the force of contraction
  effect on heart rate: without affecting heart rate
[2]; added to larvae swimming medium
  concentration producing a significant increase in heart contractility: 0.1 nM
[3]
  effect on heart contractility: no effect on heart contractility

## C[N+](C)(C)CCOC(N)=O [carbachol]
[2]; 1 μM, 90 minutes, wt larvae
  reduction in cardiac output (CO): 10.39±2.2%
[2]; 10 μM, 90 minutes, wt larvae
  reduction in cardiac output (CO): 16.92±3%
[2]; 1 and 10 μM, 90 minutes, wt larvae
  effect on heart force of contraction and rate: decreased the heart force of contraction and rate

## C[C@H]1O[C@@H](O[C@@H]2[C@@H](O)C[C@H](O[C@@H]3[C@@H](O)C[C@@H](O[C@H]4CC[C@@]5(C)[C@H](CC[C@@H]6[C@@H]5C[C@@H](O)[C@]5(C)C(C7=CC(=O)OC7)CC[C@]65O)C4)O[C@@H]3C)O[C@@H]2C)C[C@H](O)[C@H]1O (stereo partly drawn) [digoxin, 4-[(3 S,5R,8R,9S,10S,12R,13 S, 14S)-3-[(2S,4S,5R,6R)-5-[(2S,4S,5R,6R)-5-[(2S,4S,5R,6R)-4,5-dihydroxy-6-methyl-oxan-2-yl]oxy-4-hydroxy-6-methyl-oxan-2-yl]oxy-4-hydroxy-6-methyl-oxan-2-yl]oxy-12,14-dihydroxy-10,13-dimethyl-1,2,3,4,5,6,7,8,9,11,12,15,16,17-tetradecahydrocyclopenta[a]phenanthren-17-yl]-5H-furan-2-one]
[2]
  effect on force of contraction: increased significantly the force of contraction
  effect on heart rate: without affecting heart rate
[2]; vs 0.1 nM bufalin or ouabain
  concentration required for a similar effect, relative to bufalin or ouabain: about tenfold
[3]
  effect on heart contractility: no effect on heart contractility
[4]
  plasma concentration at which significant signs of toxicity are observed: 3 nM
  plasma concentration considered beneficial: about 1 nM
